# Results from patent EP0568307A1, “Cosmetic composition containing alpha hydroxy carboxylic acids as preservatives” (priority 1992, dated 1993).
# Legend:
# Type in all cases: cell-based
# [1] = test system: Aspergillus niger & Penicillium sp.; experiment: Mould challenge test (mould spore suspension, viable count after 1, 7, 14, 28 days); conditions: pH 5.5
# Protocol: (§1) The micro-organisms selected for this test were: • i) Pseudomonas cepacia - a gram-negative bacterium, • ii) Candida parapsilosis - a yeast, and • iii) Aspergillus niger & Penicillium sp., - a mixture of moulds.
# The above procedure applies to the inoculation of the bacterium and the yeast, and this procedure was varied slightly with the mixed culture of moulds as follows: • i) two samples of each test composition (9.9 ml and 9 ml) were transferred to sterile flasks and 0.1 ml or 1 ml of a mould spore suspension (approximately 10⁸ spores per ml) was introduced into the respective samples and thoroughly mixed. The inoculated samples were incubated at 28°C for up to 28 days with 1 ml samples being aseptically removed for the total viable count as outlined above using Sabouraud's dextrose agar after 1, 7, and 28 days. • ii) "Low risk" compositions eliminate mould spores in 1 to 2 days, "medium risk" compositions take 7 to 14 days to eliminate the spores and the "high risk" compositions still have surviving mould spores after 14 days incubation.
# [2] = test system: one of the test organisms; experiment: Challenge test, inoculations to failure, Series V (organism not stated in Table 10); conditions: 1% w/w added to oil-in-water skin cream, pH 5.5
# Protocol: (§2) This test involved incubating under standard conditions test compositions which have been inoculated with a selected bacterium, yeast or a mixture of moulds. […] Accordingly, the higher the number of "challenges", the better is the preservative. substance in preventing or at least delaying microbial spoilage.
# (§3) The method of testing was as follows: • i) Introduce aseptically 99 ml of test composition into a 250 ml flask and add 1 ml of inoculum of one of the test organisms (see above), to provide a dilution of 10⁶ cells/ml in the composition. • ii) mix and incubate at 28°C for 24 hours. • iii) remove 1 ml of incubated composition from the flask and add to it 9 ml of peptone water/Tween 80 as diluent and mix thoroughly. • iv) place 1 ml of diluted sample into a petri dish and add warm, molten agar (40°C) and mix to distribute culture uniformly and allow to set. • v) incubate plates for 3 days at 28°C and then count colonies and note log reduction of count (due to the presence of the preservative in the original culture composition).
# (§4) The inoculation of the organisms originally introduced into each composition is then repeated at 24 hour intervals, following removal of the first total viable count sample, the plating out and counting procedure being repeated on each occasion. The test is terminated when the samples show a contamination level greater than 10² counts per ml on 2 consecutive days. This point is regarded as the failure point for the composition under test.
# (§5) The greater the number of inoculations of contaminant organisms before this level of contamination is established in the composition, the better the preservative system.
# Various preservative materials were added to samples of this base formulation. The resulting compositions were subjected to the mould challenge test, as set out in Table 10 below.
# Pseudomonas cepacia = experiment: Challenge test, repeated inoculation with a bacterium until failure; conditions: Series IV, pH 5.5
# Protocol: A test was devised to assess the ability of selected hydroxyorganic acids to preserve, against microbial spoilage, compositions according to the invention and, by way of comparison, others containing conventional chemical preservative substances.
# as §2, §1, §3, §4, §5
# [3] = Series V, 1% w/w added to oil-in-water skin cream
# [4] = Series IV, 0.1 % w/w in water-in-oil cream
# [5] = Series IV, 0.25 % w/w in water-in-oil cream
# [6] = Series IV, 0.5 % w/w in water-in-oil cream
# [7] = Series IV, 0.75 % w/w in water-in-oil cream
# [8] = Series IV, 1 % w/w in water-in-oil cream
compound,measurement,setting,value
"CCCCCCCCCCCC(=O)O [Lauric acid, reference compound]",mould challenge 1%,[1]; [3],++++
same,No of inoculations to failure,[2],1
"COCCCCCCCC=CCC(O)C(=O)O (stereo not shown) ['oxa' hydroxy acid, 2-Hydroxy-13-oxa-4-tetradecenoic acid]",preservation against the mould challenge (in words),[1]; Series II,good preservation
"CCCCCCCCCCCC(=O)OCC(O)CO (stereo not shown) [Monolaurin, reference compound]",mould challenge 1%,[1]; [3],++++
same,No of inoculations to failure,[2],1
CCCCCCC(O)C(=O)O (stereo not shown) [2-hydroxyoctanoic acid],number of inoculations of bacteria to failure,Pseudomonas cepacia; 0.1 % w/w in water-in-oil cream,4
same,number of inoculations of bacteria to failure,Pseudomonas cepacia; 0.25 % w/w in water-in-oil cream,4
same,number of inoculations of bacteria to failure,Pseudomonas cepacia; 0.5 % w/w in water-in-oil cream,20
same,number of inoculations of bacteria to failure,Pseudomonas cepacia; 0.75 % w/w in water-in-oil cream,>20
same,number of inoculations of bacteria to failure,Pseudomonas cepacia; 1 % w/w in water-in-oil cream,>20
same,mould challenge 1%,[1]; [4],++
same,mould challenge 10%,[1]; [4],++
same,mould challenge 1%,[1]; [5],++
same,mould challenge 10%,[1]; [5],++
same,mould challenge 1%,[1]; [6],+
same,mould challenge 10%,[1]; [6],++
same,mould challenge 1%,[1]; [7],+
same,mould challenge 10%,[1]; [7],++
same,mould challenge 1%,[1]; [8],-
same,mould challenge 10%,[1]; [8],-
same,mould challenge 1%,[1]; [3],+
same,No of inoculations to failure,[2],>20
